EC50 data for 87 compounds are collected here from PubChem BioAssay AID2765 (Broad Institute, 2010).

In general, EC50 refers to the concentration that produces a half-maximal response.

Structures are written as SMILES. Calls of active or inactive are those of the source.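 Rule for the calls: active = half-maximal concentration for the rise in caspase light signal at or below ten times the top tested dose; inconclusive = flat fit between 30% and 70% activity, or unreliable curve fit; inactive = the rest.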

In the test the test system is MEF A1-2A-BIM cells, caspase 3/7 luminescence, 3 h. Nature of the test: caspase activation in A1-2A-BIM MEF cells, dose response, A1 inhibitor project, cell-based, luminescence, retest (AID 2765).
On to `O=S1(=O)C=C(Sc2nnc(-c3ccccc3)o2)c2ccccc21`, for which the EC50 was > 35 µM (inactive).

Take `COc1cc(OC)cc(C(=O)Nc2ccc(S(=O)(=O)N3CCOCC3)cc2)c1`: the EC50 is > 35 µM (inactive). Then `COc1ccc([C@H]2CC(=O)C=C(c3ccccc3C(F)(F)F)C2)cc1`, with > 35 µM (inactive). Consider `CC12CCCCC1NS(=O)(=O)OC2` (configuration not stated), for which the EC50 was > 35 µM (inactive). Take `CCN(CC)CCN(C(=O)c1cc2c(ccc3ccccc32)oc1=O)c1nc2cc3c(cc2s1)OCCO3`: the concentration for a half-maximal effect (EC50) was 8.31 µM.

`COc1ccc(C(=O)Sc2ccc(Cl)cc2)cc1OC`: the EC50 was > 35 µM (inactive). `Cc1ccc(-n2nc3c(=O)n(C(C)C(=O)NCc4ccccc4Cl)nc(C)c3c2C)cc1` (configuration not stated): the EC50 was > 35 µM (inactive). Then `Cc1cc(C)c(S(=O)(=O)N2CCCCCC2)cc1Br`, with > 35 µM (inactive); and `COc1ccc(OC)c2sc(N(CCCN(C)C)C(=O)c3ccc(S(=O)(=O)N4CCc5ccccc5C4)cc3)nc12`, with > 35 µM (inactive); and `COc1ccc(NC(=O)C(=O)N/N=C\c2ccc(CNC(=O)C(=O)Nc3ccc(C)c(C)c3)o2)c(OC)c1`, with 14.3 µM. Then `CC1=CC(=O)C(C(C)C)=C/C1=N/OS(=O)(=O)c1ccccc1`, with 9.28 µM. Regarding `Cc1cc(NC(=O)c2ccc3c(c2)C(=O)N(Cc2ccccc2)C3=O)no1`, the EC50 was > 35 µM (inactive). Turning to `Cc1ccsc1CNC1CCCCC1`, the EC50 was > 35 µM (inactive). Consider `NS(=O)(=O)c1ccc(CCNC(=O)c2ccc3c(c2)OCCO3)cc1`, for which the EC50 was > 35 µM (inactive). With `CCOc1ccc(CNC2CCCCCCC2)cc1OC`, the EC50 is > 35 µM (inactive).

In the case of `COc1cccc(/C=N/NC(=O)c2cc3cc([N+](=O)[O-])ccc3s2)c1O`, the EC50 is > 35 µM (inactive). Then `CCOC(=O)[C@H]1[C@H]2COc3cc(OC)ccc3[C@@H]2N2C(=O)c3ccc(C)cc3NC(=O)[C@@]12C`, with > 35 µM (inactive); and `COc1ccc2cc(C)c3nnc(SCC(=O)Nc4nc(-c5ccc(F)cc5)cs4)n3c2c1`, with 9.65 µM; and `O=C(Nc1ccc(Cl)cc1Cl)c1cccc(N2C(=O)C=CC2=O)c1`, with > 35 µM (inactive). As to `C#CC(=O)N(c1cc(OC)ccc1OC)C(C(=O)NC1CCCC1)c1cccs1` (configuration not stated), the EC50 is > 35 µM (inactive). As for `COc1ccccc1-c1cc(C(F)(F)F)nc(S(=O)(=O)CCCC(=O)N2CCOCC2)n1`, the 50% effective concentration (EC50) was 28.7 µM. Turning to `CN1C2CCC1/C(=C/c1ccccn1)C(=O)/C2=C\c1ccccn1`, the EC50 is > 35 µM (inactive).

Consider `CC1(C)C[C@H](O)[C@]2(CO)[C@H](O)C[C@]3(C)C(=CCC4[C@@]5(C)CC[C@H](O)C(C)(C)C5CC[C@]43C)[C@@H]2C1` (some centres not stated), for which the EC50 was > 35 µM (inactive). For `NC(=O)CCSC(=S)N1CCOCC1`, the EC50 is > 35 µM (inactive).

For the compound `O=S(=O)(Nc1nc2ccccc2nc1Cl)c1ccc(Br)cc1`, the EC50 was > 35 µM (inactive). As to `O=C(O)COc1ccccc1C=NNc1ccc([N+](=O)[O-])cc1S(=O)(=O)Nc1ccc(Cl)cc1`, the EC50 was > 35 µM (inactive). For `COC(=O)CCC(=O)c1ccc(OC)c(Cl)c1`, the EC50 is > 35 µM (inactive).

In the case of `CCCCCCCCC(=O)NNC(=O)c1c(O)c2ccccc2n(CCC)c1=O`, the EC50 is > 35 µM (inactive). On to `CC(C)C(=O)n1nc(-c2cccnc2)nc1NCc1ccc(F)cc1`, for which the EC50 was > 35 µM (inactive).

On to `C=CCNC(=O)CSc1nc2sc3c(c2c(=O)n1CCC)CCC3`, for which the EC50 is > 35 µM (inactive). Then `COc1cc2c(cc1OC)C(c1ccccc1Br)NC(=O)C2` (configuration not stated), with > 35 µM (inactive). Consider `CCOC(=O)CCCNS(=O)(=O)c1c(C)ccc2nsnc12`, for which the EC50 is > 35 µM (inactive). As to `CCc1ccccc1NC(=O)C(CC)Sc1nc2cc3c(cc2c(=O)n1Cc1ccco1)OCO3` (configuration not stated), the EC50 was > 35 µM (inactive). Then `Cc1cccc(C)c1NC(=S)Nc1ccccc1C(=O)NCc1ccco1`, with > 35 µM (inactive). On to `Cc1noc(C)c1COc1ccc(C(=O)OC(C)C(=O)Nc2ccc(N3CCOCC3)cc2)cc1` (configuration not stated), for which the EC50 is > 35 µM (inactive). For the compound `CCOC(=O)CCCCCNC(=O)c1ccc(F)cc1F`, the EC50 is > 35 µM (inactive). Consider `CCOC(=O)c1cc(/C(C)=N/OC(=O)c2ccc(C(C)(C)C)cc2)on1`, for which the EC50 is > 35 µM (inactive). With `Cc1ccc(C#N)c(SCC(=O)Nc2nccs2)n1`, the EC50 was > 35 µM (inactive). Consider `Cc1ccc(S(=O)(=O)NCCN2CCOCC2)cc1`, for which the EC50 was > 35 µM (inactive). Then `CCOCCCNC(=O)C1(O)c2cc(Br)ccc2NC(=O)N1c1ccc(CC)cc1` (configuration not stated), with > 35 µM (inactive); and `COC(=O)c1ccc2c(c1)C(C)(C)C(/C=C/c1ccc(O)cc1)=[N+]2C`, with 15.2 µM.

For the compound `Cc1cccc(NC(=S)NC2CCCC2)c1C`, the EC50 was > 35 µM (inactive). As for `COc1ccc2c(-c3cc4ccc(OCc5ccc(F)cc5)cc4oc3=O)cc(=O)oc2c1`, the EC50 was 30.1 µM. Then `CS(=O)(=O)Nc1ccc(C2=NN(S(C)(=O)=O)C(c3ccccc3)C2)cc1` (configuration not stated), with > 35 µM (inactive).

For the compound `O=C1N/C(=C/c2ccc(N3CCOCC3)o2)C(=O)N1c1cccc(Cl)c1`, the EC50 is > 35 µM (inactive). On to `Cc1ccc2nc(N(CCCN(C)C)C(=O)c3ccc(S(=O)(=O)N4CCc5ccccc5C4)cc3)sc2c1`, for which the EC50 was > 35 µM (inactive). Then `S=C(NCCc1ccccc1)NC1CCCCCC1`, with > 35 µM (inactive). Then `Cc1cc(/C=C(/C#N)C(=O)O)c(C)n1-c1cccc2ccccc12`, with > 35 µM (inactive). For the compound `CCCCNC(=S)N/N=C/c1ccc(OCC(=O)Nc2c(C)cc(C)cc2C)c(OC)c1`, the EC50 is > 35 µM (inactive). Then `C#CCn1ccc(O)c(Cc2ccccc2)c1=O`, with > 35 µM (inactive). In the case of `CCOC(=O)C(C(=O)OCC)C(C(=O)OCC)N1CCOCC1` (configuration not stated), the EC50 was > 35 µM (inactive). On to `CCCCOC(=O)c1ccc(S(N)(=O)=O)o1`, for which the EC50 is > 35 µM (inactive). Regarding `CCCCn1c(=O)[nH]c(=O)c2c1nc(Cn1ncc(Cl)c(Cl)c1=O)n2CCC`, the EC50 is > 35 µM (inactive). In the case of `CSc1ccccc1NC(=O)CCn1c(=O)sc2ccccc21`, the EC50 was > 35 µM (inactive). Then `COc1cc2c3c([nH]c2cc1F)C(=O)NCC3`, with > 35 µM (inactive); and `NC(=O)OCCCc1ccccc1`, with > 35 µM (inactive); and `CCCNC(=O)c1ccc2c(=O)c(O)c(-c3ccsc3)[nH]c2c1`, with > 35 µM (inactive).

As for `COc1ccc(N2CCN(C(=O)CCn3nnc4ccccc43)CC2)cc1`, the EC50 is > 35 µM (inactive). With `CC1CC(C)CN(C(=O)c2ccc(-c3ccc([N+](=O)[O-])cc3)o2)C1` (configuration not stated), the EC50 is > 35 µM (inactive). As for `COc1ccc(S(=O)(=O)Nc2ccccc2C(=O)NC2CC2)cc1NC(C)=O`, the EC50 is > 35 µM (inactive). For the compound `Cn1cnnc1SCC(=O)Nc1ccc(F)cc1`, the EC50 was > 35 µM (inactive). For `CCc1cc(C(=O)OCC(=O)N2CCC(c3ccccc3)=N2)sc1C`, the EC50 was > 35 µM (inactive). Then `COc1c(Br)cc([N+](=O)[O-])c(OC)c1C(=O)NC(=O)Nc1nc(C)cc(C)n1`, with > 35 µM (inactive).

As for `COC(=O)c1ccc(C(=O)OC)c(NC(=O)CSc2ccccn2)c1`, the EC50 is > 35 µM (inactive). With `CCN(CC)CCCNC(=S)N1CCC(c2nc3ccccc3[nH]2)CC1`, the EC50 is > 35 µM (inactive).

For `Cc1ccc(C(C(=O)NCc2ccco2)N(C(=O)Cc2cccs2)c2cccnc2)cc1` (configuration not stated), the EC50 was > 35 µM (inactive). Then `Nc1nc(F)nc2c1ncn2[C@@H]1O[C@H](CO)[C@@H](O)[C@H]1O`, with > 35 µM (inactive); and `CC(C)(C)OC(=O)NCCc1nnc(S(=O)(=O)Cc2ccc(Cl)cc2Cl)o1`, with > 35 µM (inactive); and `CS(=O)(=O)c1nc(-c2ccco2)cc(C(F)(F)F)n1`, with > 35 µM (inactive). Then `Cc1ccc(NC(=O)Cn2ncc(Cl)c(Cl)c2=O)cc1S(=O)(=O)N1CCCCC1`, with > 35 µM (inactive); and `O=C(NCc1cccnc1)[C@@H]1CC=C[C@@H]2CCN(Cc3ccccc3)C(=O)[C@@H]21`, with > 35 µM (inactive); and `O=C(COc1ccc(Cl)cc1)NCc1nnc(SCC(=O)Nc2ccccc2F)o1`, with > 35 µM (inactive). For `O=C(COc1ccc(/C=N/NC(=O)c2cc3ccccc3o2)cc1Br)Nc1ccccc1`, the concentration for a half-maximal effect (EC50) was 31.2 µM. `Cc1cccc(C)c1NC(=O)CS(=O)CC(=O)N1CCN(c2ccccc2)CC1` (configuration not stated): the EC50 was > 35 µM (inactive). In the case of `O=C(CCC(=O)N1CCN(c2ccccc2F)CC1)N1CCN(c2ccccc2)CC1`, the EC50 was > 35 µM (inactive). In the case of `O=C(O)c1cccc(CSc2nc(-c3ccc(Cl)cc3)cc(C(F)(F)F)n2)c1`, the EC50 was > 35 µM (inactive).

Turning to `CC(=O)N1CCN(C2c3cccc4cccc(c34)C2NS(=O)(=O)c2ccccc2)CC1` (configuration not stated), the EC50 is > 35 µM (inactive). Then `O=C1C(=O)c2ccc(-c3ccccc3)cc2-c2ccccc21`, with > 35 µM (inactive); and `CC(C)CCN1NC2(CCCC(C)C2)NC1=S` (configuration not stated), with > 35 µM (inactive). Consider `Cc1ccc(SCCNC(=S)Nc2cc(C)ccc2C)cc1`, for which the EC50 was > 35 µM (inactive). Regarding `COc1ccc2[nH]c3c(=O)n(/N=C/[C@H]4C(C)C=C(C)CC4C)c(=O)[nH]c3c2c1` (some centres not stated), the EC50 was 16 µM. Then `N#Cc1c(C(F)(F)F)cc(-c2ccccc2)nc1SCC(=O)Nc1sc2c(c1C#N)CCC2`, with > 35 µM (inactive). Consider `COc1cccc(C(=O)C(C#N)=C(SC)SC)c1`, for which the EC50 is > 35 µM (inactive). For `CN1CCc2c(sc3c2C(=O)NC(c2ccccn2)N3)C1` (configuration not stated), the EC50 is > 35 µM (inactive). Turning to `Cc1ccc(OCC(O)CN2CCN(CCO)CC2)c(C)c1` (configuration not stated), the EC50 is > 35 µM (inactive). Consider `CCCNC(=O)N1[C@H]2CC[C@@H]1C(C(=O)OC)=C(c1c(C)noc1C)C2`, for which the EC50 was > 35 µM (inactive). With `NC(=O)c1ccc(NC(=O)CSc2nnc(C3CC3)n2C2CC2)cc1`, the EC50 was > 35 µM (inactive).
